Measurements taken from patent US6770674B1, “Mollusc repellent” (priority 1998, dated 2004).
Several values for one entry are separate records, joined by “and”; a condition that tells them apart may be missing. Equal entries are not always repeated.

What was measured:
[1] = tested on: Human; conditions: oral; cited from earlier work
[2] = tested on: juvenile Helix aspersa; assay: Attractancy/repellency test, sectorised filter technique of Bowen and Antoine; assay type: in vivo; design: key to Final Position: R: roof of the container; T: test sector; C: control sector; conditions: for % Sector Eaten Control / % Sector Eaten Test: overnight; for repellency to snails (summary in words): arena trials, Helix aspersa
Description: One sector of the filter paper was used as the control and this was moistened with distilled water (1 ml). The other half was moistened with the test compound. […] The paper containing the copper oxalate was moistened with water after the addition of the chemical.
Filter sectors were placed on the lid of a plastic tub. The tub was inverted and was used to make a closed test arena. A small gap of 2 mm was left between the two filter sectors so as to prevent mixing of the test paper with the control. One juvenile Helix aspersa was introduced to the control sector and was allowed to remain in the arena overnight.
Attractancy/repellency was detected by dusting the filter paper with charcoal to reveal the slug trails. The results were quantified by placing a transparent grid over the test sectors and measuring the area covered by snail trails. Any phagostimulatory effect of the test compound was indicated by the consumption of the treated paper.

[3] = tested on: slug, Deroceras reticulatum; assay: Protection of coated seeds fed to slugs (Example 2); assay type: in vivo; conditions: for % Seeds damaged Broad beans After 7 days: coated broad beans; for % Seeds damaged Pea seeds After 5 days / % Seeds damaged Pea seeds After 7 days: coated pea seeds; for % Seeds damaged Wheat seeds After 5 days / % Seeds damaged Wheat seeds After 7 days: coated wheat seeds
Text: In the following experiment, various seeds were coated with copper oxalate and ferric potassium oxalate, respectively and fed to the slug, Deroceras reticulatum. The damage to these seeds was compared to damage to control seeds, which were left untreated.

[4] = tested on: slug, Deroceras reticulatum; assay: Protection of wheat and pea seeds compared to BAYSOL and […] (Example 3); assay type: in vivo
Description: In the following experiment, the efficacy of copper oxalate for the protection of seeds was tested and compared to BAYSOL® and […]®. Seeds were coated with an aqueous suspension of copper oxalate, dried and fed to the slug, Deroceras reticulatum.

[5] = tested on: snail, Cernuella virgata; assay: Repellency of copper oxalate in a PVA coating (paint) composition on paper towel (Example 4); assay type: in vivo
Text: In the following experiment, the repellency of copper oxalate was investigated when incorporated in a paint composition. In this example, the carrier used was a common aqueous PVA solution sold in Australia under the brand name of Bond Crete.
Thirty-three 1 liter containers were used each with 3 layers of paper towel covering the bottom of the container. Half of the uppermost surface of each of the paper towels was coated with a solution made from 1 part copper oxalate: 10 parts water: 1 part PVA emulsion. This coating was applied at a rate of about 2 ml per 100 cm2 and allowed to dry. The towel was then moistened with approximately 20 ml of water. One snail, Cernuella virgata, was placed in the centre of the paper towels at the border of the coated and the uncoated half in each container. […] The snails consumed some of the untreated paper. […] After 7 days, the number of snails on the treated and untreated sections of the paper towel were counted, together with the number on the sides and lid of the container.

[6] = tested on: Rat; conditions: oral; cited from earlier work
[7] = after 7 days, 33 containers with one snail each, same coating

[Cu+2].[OH-].[OH-] [Copper hydroxide]
LD50 (Human) [1]: 200 mg/kg

O=C([O-])C(=O)[O-].[Cu+2] [Copper oxalate, copper oxalate]
% Sector Eaten Control ([2]; 1.61 mg/cm2, control sector of same arena): 4%
Final Position ([2]; 1.61 mg/cm2, overnight): R
% Sector Eaten Test ([2]; 1.61 mg/cm2, test sector): 0%
% Covered Control ([2]; 1.61 mg/cm2, trail cover of control sector of same arena): 88%
% Covered Test ([2]; 1.61 mg/cm2, trail cover of test sector): 4.4%
% Sector Eaten Control ([2]; 2.11 mg/cm2, control sector of same arena): 5%
Final Position ([2]; 2.11 mg/cm2, overnight): R
% Sector Eaten Test ([2]; 2.11 mg/cm2, test sector): 0%
% Covered Control ([2]; 2.11 mg/cm2, trail cover of control sector of same arena): 71.1%
% Covered Test ([2]; 2.11 mg/cm2, trail cover of test sector): 0%
% Sector Eaten Control ([2]; 2.43 mg/cm2, control sector of same arena): 2%
Final Position ([2]; 2.43 mg/cm2, overnight): R
% Sector Eaten Test ([2]; 2.43 mg/cm2, test sector): 0%
% Covered Control ([2]; 2.43 mg/cm2, trail cover of control sector of same arena): 68.9%
% Covered Test ([2]; 2.43 mg/cm2, trail cover of test sector): 0%
% Sector Eaten Control ([2]; 2.47 mg/cm2, control sector of same arena): 5%
Final Position ([2]; 2.47 mg/cm2, overnight): R
% Sector Eaten Test ([2]; 2.47 mg/cm2, test sector): 0%
% Covered Control ([2]; 2.47 mg/cm2, trail cover of control sector of same arena): 86.7%
% Covered Test ([2]; 2.47 mg/cm2, trail cover of test sector): 0%
% Sector Eaten Control ([2]; 3.19 mg/cm2, control sector of same arena): 2%
Final Position ([2]; 3.19 mg/cm2, overnight): C
% Sector Eaten Test ([2]; 3.19 mg/cm2, test sector): 0%
% Covered Control ([2]; 3.19 mg/cm2, trail cover of control sector of same arena): 88%
% Covered Test ([2]; 3.19 mg/cm2, trail cover of test sector): 0%
% Sector Eaten Control ([2]; 3.46 mg/cm2, control sector of same arena): 1%
Final Position ([2]; 3.46 mg/cm2, overnight): R
% Sector Eaten Test ([2]; 3.46 mg/cm2, test sector): 0%
% Covered Control ([2]; 3.46 mg/cm2, trail cover of control sector of same arena): 66.7%
% Covered Test ([2]; 3.46 mg/cm2, trail cover of test sector): 4.4%
repellency to snails (summary in words) [2]: strongly repelled
% Seeds damaged Broad beans After 7 days [3]: 5%
% Seeds damaged Pea seeds After 5 days [3]: 7%
% Seeds damaged Pea seeds After 7 days [3]: 7%
% Seeds damaged Wheat seeds After 5 days [3]: 0%
% Seeds damaged Wheat seeds After 7 days [3]: 2%
slug repellency for seeds (summary in words) ([3]; wheat and pea seeds): very effective slug repellent
% Seeds damaged Pea seeds After 7 days ([4]; pea seeds, 7 days): 8%
% Seeds damaged Wheat seeds After 9 days ([4]; wheat seeds, 9 days): 10%
repellency in a coating composition (summary in words) ([5]; PVA coating composition): functions effectively as a mollusc repellent
No. of snails in area: On lid of container ([5]; after 7 days, 33 containers with one snail each, coating 1 part copper oxalate: 10 parts water: 1 part PVA emulsion): 1
No. of snails in area: On Treated half of paper [5, 7]: 8
No. of snails in area: On side of container [5, 7]: 1
No. of snails in area: On untreated half of paper [5, 7]: 23
consumption of the treated paper ([5]; coated half of paper towel, 7 days): No consumption

[Cl-].[Cu+2].[Cu+2].[OH-].[OH-].[OH-] [Copper oxychloride]
LD50 (Rat) [6]: 700 mg/kg

O=C([O-])C(=O)[O-].O=C([O-])C(=O)[O-].O=C([O-])C(=O)[O-].[Fe+3].[K+].[K+].[K+] [Ferric potassium oxalate, ferric potassium oxalate]
% Seeds damaged Broad beans After 7 days [3]: 0%
% Seeds damaged Pea seeds After 5 days [3]: 15%
% Seeds damaged Pea seeds After 7 days [3]: 17%
% Seeds damaged Wheat seeds After 5 days [3]: 3%
% Seeds damaged Wheat seeds After 7 days [3]: 20%

Copper acetate
LD50 (Rat) [6]: 595 mg/kg

cetyl tertiary ammonium bromide [CeTAB, reference compound]
% Sector Eaten Control ([2]; 0.2 mg/cm2, control sector of same arena): 4% and 1% and 2%
Final Position ([2]; 0.2 mg/cm2, overnight): R
% Sector Eaten Test ([2]; 0.2 mg/cm2, test sector): 0%
% Covered Control ([2]; 0.2 mg/cm2, trail cover of control sector of same arena): 77.8% and 75.6% and 86.7%
% Sector Eaten Control ([2]; 2.0 mg/cm2, control sector of same arena): 4% and 5% and 3%
Final Position ([2]; 2.0 mg/cm2, overnight): R
% Sector Eaten Test ([2]; 2.0 mg/cm2, test sector): 0%
% Covered Control ([2]; 2.0 mg/cm2, trail cover of control sector of same arena): 62.2% and 66.6% and 71.1%
% Covered Test ([2]; 2.0 mg/cm2, trail cover of test sector): 0%
repellency to snails (summary in words) [2]: act as a repellent
